Reference: US11246873B2, “Directed differentiation of oligodendrocyte precursor cells to a myelinating cell fate” (The Scripps Research Institute, priority 2011, dated 2022)
“Also recorded” adds a separate entry of the source.

What was measured:
[1] = system: rat optic nerve derived OPCs; experiment: High content imaging assay of OPC differentiation (MBP immunostaining, OPERA); assay type: cell-based; conditions: for induction of OPC differentiation (MBP staining): OPCs in differentiation medium (2 ng/ml PDGF), 6 days
Description: FIG. 1A-C. […] The calculated EC50 values were determined using appropriate Graphpad Prism 5.0 curve fitting software. […] OPCs were plated in 384 well plates at 1000 cells per well in OPC media containing basal PDGF-αα (2 ng/mL) and treated with serial dilutions of compounds. Following six days of compound treatment, cells were fixed and subjected to immunofluorescence analysis using anti-myelin basic protein (MBP) antibody. Image acquisition and quantification of MBP staining was performed using the OPERA imaging system.
FIG. 11A-B. Screen to identify inducers of OPC differentiation. (A) OPCs were maintained as proliferating A2B5-positive cells under basal growth conditions (Neurobasal medium, B27 supplement without Vitamin A, non-essential amino acids, L-Glutamine, 30 ng/ml PDGF). OPCs were plated in basal differentiation media (Neurobasal medium, B27 supplement without Vitamin A, non-essential amino acids, L-Glutamine, 2 ng/ml PDGF), treated with DMSO (<0.1%) or thyroid hormone (1 uM), fixed after 6 days in culture, and stained using antibodies for CNP, O4, or MBP. […] (B) Screen strategy using A2B5 positive OPCs cultured under basal differentiation conditions and treated with compounds for 6 days to identify small molecules that induce the differentiation of OPCs to mature, MBP expressing oligodendrocytes.
FIG. 12A-B. Primary hit confirmation. (A) Dose response assay used to confirm primary screening hits and determine potency (EC50). (EC50) is defined as the concentration that results in a half maximal increase in the percentage of total cells that express MBP as detected by immunostaining. […] Cells were fixed and immunostained using antibodies for MBP. Error bars represent standard deviations from 3 replicate experiments. […]
FIG. 21. […] OPCs were plated in differentiation medium (2 ng/ml PDGF) and treated with various concentrations of compounds for 6 days. Cells were fixed and immunostained for MBP.
A large-scale small molecule screen was conducted to identify small molecules that promote the differentiation of oligodendrocyte precursor cells (OPCs) to a mature myelinating fate. High content imaging was used to detect in-well differentiation of rat optic nerve derived OPCs. Rat optic nerve derived OPCs were expanded en masse in OPC media containing 30 ng/mL PDGFαα. To screen for small molecule inducers of OPC differentiation, OPCs (cultured for fewer than 15 passages) were plated in poly-D-lysine coated 384 well culture plates in OPC Media containing 2 ng/mL PDGFαα and immediately treated with compounds at a final concentration of 6 μM (0.6% DMSO). Compound treated cells were incubated at 37° C., 5% CO2 for 6 days. At the end of 6 days, cells were fixed in 4% paraformaldehyde and subjected to immunofluorescence analysis. Anti-Myelin Basic Protein monoclonal antibody (a.a. 129-138, clone 1 monoclonal antibody, Millipore) (1:1000 dilution) in blocking buffere solution (3% BSA, 0.3% Triton X-100 in PBS) was added to fixed and washed cells and incubated at 4° C. overnight.

OPCs [2] = experiment: qRT-PCR of MBP and MOG expression in compound treated OPCs; assay type: cell-based, rat; conditions: EC90 concentrations, 6 days
Excerpt: FIG. 2A-C. […] (A) Western blot analysis of OPCs treated with compounds at EC90 concentrations for 6 days. Total protein was isolated from cell pellets and probed for myelin basic protein (MBP) and myelin oligodendrocyte glycoprotein (MOG) using specific antibodies. (B-C) Quantitative RT-PCR (qRT-PCR) analysis of OPCs treated with compounds at EC90 concentrations for 6 days. Total RNA was isolated from cell pellets and reverse transcribed. MBP and MOG expression was quantified using specific probes and Taqman-based qRT-PCR. Expression was normalized to the internal controls β-actin and GAPDH. Fold change in gene expression over DMSO treated control cells is plotted for MBP (B) and MOG (C).

OPCs [3] = experiment: Western blot of MBP and MOG in compound treated OPCs; assay type: cell-based, rat; conditions: OPCs treated 6 days
Excerpt: FIG. 2A-C. Neurotransmitter receptor modulating agents induce the differentiation of OPCs to a myelinating oligodendrocyte cell fate. (A) Western blot analysis of OPCs treated with compounds at EC90 concentrations for 6 days. Total protein was isolated from cell pellets and probed for myelin basic protein (MBP) and myelin oligodendrocyte glycoprotein (MOG) using specific antibodies. (B-C) Quantitative RT-PCR (qRT-PCR) analysis of OPCs treated with compounds at EC90 concentrations for 6 days. Total RNA was isolated from cell pellets and reverse transcribed. MBP and MOG expression was quantified using specific probes and Taqman-based qRT-PCR. Expression was normalized to the internal controls β-actin and GAPDH. Fold change in gene expression over DMSO treated control cells is plotted for MBP (B) and MOG (C).
FIG. 13. […] After 6 days in culture, cells were analyzed for MBP and MOG expression by Western blot.

OPCs [4] = experiment: Immunofluorescence analysis of mature oligodendrocyte markers (MBP, MOG, CNP, GalC, O1, O4); assay type: cell-based, rat; conditions: OPCs treated 6 days
Excerpt: FIG. 3. Immunofluorescence analysis of compound treated OPCs using mature oligodendrocyte specific markers. Immunofluorescence staining using specific antibodies for MBP, MOG, and 2′,3′-cyclic nucleotide 3′ phosphodiesterase (CNP). Nuclei were identified using DAPI.
FIG. 4. Immunofluorescence analysis of compound treated OPCs using mature oligodendrocyte specific markers. Immunofluorescence staining using specific antibodies for galactocereberoside (GalC), oligodendrocyte marker O1 (O1) and oligodendrocyte marker O4 (O4). Nuclei were identified using DAPI.
FIG. 14. Compound treatment induces the differentiation of OPCs to mature oligodendrocytes. […] Cells were fixed and immunostained for MBP, MOG, CNP, GalC, O1, or O4.
Immunofluorescence was also used to confirm that the hits were able to induce oligodendrocyte maturation.

muscarinic receptor = experiment: Carbachol co-treatment in compound induced OPC differentiation (MBP staining); assay type: cell-based, rat; conditions: compounds at EC90 (benztropine 2.3 uM), serial dilutions of carbachol, 6 days
Description: (§1) Following 6 days of treatment, cells were fixed and stained for MBP. Plates were imaged using the OPERA high content screening system and MBP staining was quantified as described. […] OPCs were plated in 384-well plates at 5000 cells per well in media containing basal PDGF-αα. Cells were equilibrated with Ca^2+ sensitive Fluo-3AM® dye in HBSS for 30 min. […] Ca^2+ influx was immediately measured using the FLIPR TETRA® system.
OPCs express mAChRs, predominantly subtypes M1, M3, and M5 (F. Ragheb et al., J Neurochem, 77, 1396 (2001)). […] Activation of M1 and M3 mAChRs is coupled to downstream signal transduction events through phospholipase C, which results in increased intracellular calcium concentrations (F. Ragheb et al., J Neurochem, 77, 1396 (2001)) (FIG. 23C). M2 and M4 mAChR activation inhibits adenylatecyclase, leading to decreased intracellular cAMP levels (C. C. Felder, FASEB J, 9, 619 (1995); M. Lopez-Ilasaca et al., Science, 275, 394 (1997)). […] Acetylcholine is a known regulator of OPC proliferation and, as such, muscarinic receptor subtypes represent a reasonable class of therapeutic targets for the modulation of OPC proliferation and differentiation (F. De Angelis et al., Dev Neurobiol, (2011)).

[5] = system: M1/M3 muscarinic receptors
Description: as §1
(A-C) OPCs were plated in differentiation media for 12 hours. […] (C) Atropine, a muscarinic antagonist, serves as a positive control. (D) OPCs were plated in differentiation medium for 12 hours. A cAMP-HTRF assay was performed using the cAMP dynamic 2 kit. […] IBMX was added as a cAMP stabilizer, and forskolin was a positive control.

PLP induced EAE mice = system: PLP induced EAE mice
Description: (A-E) SJL mice were immunized with proteolipid peptide (PLP) and pertussis toxin and monitored daily with scoring on the standard clinical EAE scale (0-5). Compounds were administered daily for the duration of the study in saline at 10 mg/kg via intra-peritoneal injection (0.1 ml), starting on the day of the appearance of clinical EAE symptoms (day 10). […] Mean clinical EAE score and standard error of mean (SEM) are shown for each study group.
FIG. 25. […] EAE was induced in mice using PLP and pertussis toxin. […] Prophylactic dosing is defined as administration of compound commenced on the day of PLP injection. Error bars indicate standard deviation of the mean within each group of 8 mice.
(A-F) EAE was induced in mice using PLP and pertussis toxin. […] Error bars indicate standard deviation of the mean within each group of 8 mice.
(A-F) EAE was induced in mice by injecting PLP in complete Freund's adjuvant (CFA) and pertussis toxin, and the animals were scored daily for clinical severity of disease on a scale of 0-5. […] Error bars indicate standard deviation of the mean within each group of 8-10 mice.
10 week old SJL mice were immunized with PLP emulsion and pertusis toxin to induce EAE. […] Compounds were administered daily via intraperitoneal injection of 100 ul in sterile saline at 10 mg/kg alone or in combination with mycophenolate motefil in sterile saline at pH 5 at 20 mg/kg. Compound administration was initiated at disease onset (day 10) while mycophenolate motefil administration was initiated on Day 14. The mice were scored daily on a standard EAE scale of 0-5.
This model is most commonly used to evaluate the potential efficacy of immunomodulatory agents, but can also be used to determine the effectiveness of promyelinating agents that function by enhancing OPC differentiation (M. Fernandez et al., Proc Natl Acad Sci U.S.A, 101, 16363 (2004); X. Lee et al., J Neurosci, 27, 220 (2007); reviewed in R. J. Franklin, C. Ffrench-Constant, Nat Rev Neurosci, 9, 839 (2008)). […] We next evaluated efficacy when the drug is dosed therapeutically, by starting daily injections at the first sign of disease onset.
For the treatment of MS, an OPC differentiation inducing drug would most likely be introduced clinically as part of a combination therapy with an immunosuppressive drug. […] The former reduces T-cell proliferation and alters cytokine expression (A. Noronha, A. Toscas, M. A. Jensen, J Neuroimmunol, 46, 145 (1993); A. Noronha, A. Toscas, M. A. Jensen, Ann Neurol, 27, 207 (1990)), while the latter is an S1P agonist that regulates T-cell trafficking (V. Brinkmann et al., J Biol Chem, 277, 21453 (2002); V. Brinkmann et al., Nat Rev Drug Discov, 9, 883 (2010)).

[6] = system: total splenocytes stimulated with CD3; experiment: T-cell activation (CD69, CD25) and proliferation (CFSE) in vitro; assay type: cell-based, mouse; conditions: versus DMSO
Excerpt: (A-F) Total splenocytes were isolated from mice and stimulated with CD3 and analyzed by flow cytometry for expression of T-cell activation markers CD69 and CD25 and T-cell proliferation using CFSE. (A) Unstimulated cells. (B) DMSO treated cells. […] The numbers represent percentage gated populations positive for the given marker.
The primary immunological processes involved in MS and EAE are T-cell mediated and the primary treatment paradigms are based on immunomodulatory drugs (T. Kopadze et al., Arch Neurol, 63, 1572 (2006); J. M. Greer et al., J Immunol, 180, 6402 (2007), M. P. Pender and J. M. Greer, curr Allergy Asthma Rep, 7, 285 (2007)).

| Structure (SMILES) | percentage of resulting MBP-positive cells ([1]; OPC sample cultured with agent at maximum potency, listed as GBT12935) | induction of OPC differentiation (MBP staining) [1] | induction of MBP expression (qRT-PCR) over DMSO (OPCs [2]) | induction of MOG expression (qRT-PCR) over DMSO (OPCs [2]) | MBP and MOG expression (Western blot) (OPCs [3]) | markers of mature myelinating oligodendrocytes (MBP, MOG, CNP, GalC, O1, O4) by immunofluorescence (OPCs [4]) | effect of carbachol on compound induced OPC differentiation (muscarinic receptor) | effect on carbachol induced Ca2+ influx [5] | mean maximal clinical EAE score in relapse, day 25 (PLP induced EAE mice; SJL mice, scale 0-5, compounds 10 mg/kg i.p. daily from day 10, mycophenolate mofetil 20 mg/kg from day 14, mean ± SEM) | clinical severity versus vehicle, dosing after disease onset (therapeutic mode) (PLP induced EAE mice; compounds 10 mg/kg i.p. daily from first EAE symptoms, mycophenolate 20 mg/kg from day 14) | T-cell activation (CD69, CD25) [6] | T-cell proliferation (CFSE) [6] | effect of carbachol on compound induced OPC differentiation (muscarinic receptor; listed as carbapentane) |
| --- | --- | --- | --- | --- | --- | --- | --- | --- | --- | --- | --- | --- | --- |
| c1ccc(CCCN2CCN(CCOC(c3ccccc3)c3ccccc3)CC2)cc1 [GBR12935] | over 15% | promote OPC differentiation | two-fold | two-fold | positive | confirmed the presence of multiple markers of mature myelinating oligodendrocytes | did not inhibit; also recorded: no effect | no effect | – | – | – | – | – |
| COc1c(C)c2c(c(O)c1C/C=C(\C)CCC(=O)OCCN1CCOCC1)C(=O)OC2 [Mycophenolate mofetil, mycophenolate mofetil] | – | – | – | – | – | – | – | – | 0.7±0.3 | decrease in severity of the relapse | suppresses the activation and proliferation of T-cells | suppresses T-cell proliferation | – |
| CCN(CC)CCOCCOC(=O)C1(c2ccccc2)CCCC1 [carbetapentane] | – | promote OPC differentiation | two-fold | two-fold | positive | confirmed the presence of multiple markers of mature myelinating oligodendrocytes | inhibited | inhibit | – | – | – | – | dose dependent inhibition |
| OCc1cc(C(O)CNCCCCCCOCCCCc2ccccc2)ccc1O (stereo not drawn) [salmeterol] | – | promote OPC differentiation | two-fold | two-fold | positive | confirmed the presence of multiple markers of mature myelinating oligodendrocytes | did not inhibit; also recorded: no effect | no effect | – | – | – | – | – |
